Here are results for one compound from patent US10696686B2, “Herbicidally active (alkynyl-phenyl)-substituted cyclic dione compounds and derivatives thereof” (Syngenta Limited, priority 2013, dated 2020).

The structures appear in SMILES notation.

Common to all, as to assay: Biological Example 3 glasshouse assay using various adjuvant systems, post-emergence foliar spray
What all share (format): in vivo

The test system of assay [1] is Brachiaria decumbens (BRADC). Particulars: 8 g/ha, 14 DAA (A11: 14 or 15 DAA), adjuvant 0.5% v/v Adigor + 1.0% v/v AMS + 12.5% v/v IPA. As to the method: (§1) Post-emergence foliar spray application, 200 L/ha, usually one or two replicates for the weeds (depending on application rate), and two replicates for soybean.
(§2) Standard warm conditions (tropical), in glasshouse. Specifically, the glasshouse bay conditions are 24° C./18° C. day/night; 16/8 hours light/dark; 65% humidity.
(§3) The herbicidal application takes place at the following growth stages for plants which include inter alia one or more of the following plants (usually the herbicidal application takes place on at least the following plants: DIGSA, ELEIN, SETFA, ZEAMX, GLXMA Nikko, and GLXMA TMG133, and often also either BRADC or BRAPP):
Brachiaria decumbens (BRADC)—growth stage (GS) 12 or 13 (or GS 12)—or, if BRADC is not used, then usually Brachiaria platyphylla (BRAPP)—growth stage 12 or 13
(§4) Each test compound is applied with one of the following adjuvant systems (all percentages are final concentrations in the aqueous spray mixture):
(§5) Adjuvant system 1: 0.5% v/v Adigor™ *, 1.0% v/v AMS (ammonium sulphate) and 12.5% v/v IPA (isopropyl alcohol).
(§6) Adjuvant system 1A: 0.5% v/v Adigor™ * and 12.5% v/v IPA (isopropyl alcohol).
(§7) CAS Registry no. 166412-78-8), and is usually available from BASF. “Isononyl” in this context is thought to mean a mixture of two or more branched isomers of C9H19. […] A visual assessment of the % herbicidal damage is made 7 and 14 Days After herbicide Application (DAA) (or, in a minority of cases, 7 and 15 DAA), and the results are recorded as % visual herbicidal damage where 0%=no damage to plants and 100%=plant totally killed. *** Adjuvant system=either Adigor™ or Hexamoll DINCH™ or tris-(2-ethylhexyl) phosphate each at 0.5% v/v, and 12.5% v/v IPA (isopropyl alcohol), and 1.0% v/v AMS (ammonium sulphate); or 0.5% v/v Adigor™ and 12.5% v/v IPA (isopropyl alcohol); all percentages are final concentrations in the aqueous spray mixture. […]

Assay [2] has as its system Digitaria sanguinalis (DIGSA). Particulars: 8 g/ha, 14 DAA (A11: 14 or 15 DAA), adjuvant 0.5% v/v Adigor + 1.0% v/v AMS + 12.5% v/v IPA. The protocol: as §1, §2, §3
Digitaria sanguinalis (DIGSA)—growth stage 12 or 13
as §4, §5, §6
(§8) CAS Registry no. […] A visual assessment of the % herbicidal damage is made 7 and 14 Days After herbicide Application (DAA) (or, in a minority of cases, 7 and 15 DAA), and the results are recorded as % visual herbicidal damage where 0%=no damage to plants and 100%=plant totally killed. *** Adjuvant system=either Adigor™ or Hexamoll DINCH™ or tris-(2-ethylhexyl) phosphate each at 0.5% v/v, and 12.5% v/v IPA (isopropyl alcohol), and 1.0% v/v AMS (ammonium sulphate); or 0.5% v/v Adigor™ and 12.5% v/v IPA (isopropyl alcohol); all percentages are final concentrations in the aqueous spray mixture. […]
The percentages of herbicidal damage/plant control, at 14 Days After herbicide Application (DAA) (or, in a minority of cases, at 15 DAA), for the Compounds tested and for some of the plants tested, were in the following percentage ranges. […] Phytotoxicity on Glycine max (GLXMA, Soybean) Cultivar “TMG133” Glycine max (GLXMA, soybean) cultivar “TMG133” is Roundup Ready™ glyphosate-tolerant soybean cultivar TMG133, and is typically available from Monsanto in Brazil. […]

The subject of the next assay is Eleusine indica (ELEIN). The note with it: 8 g/ha, 14 DAA (A11: 14 or 15 DAA), adjuvant 0.5% v/v Adigor + 1.0% v/v AMS + 12.5% v/v IPA. The protocol: as §1, §2, §3
Eleusine indica (ELEIN)—growth stage 12 or 13
as §4, §5, §6, §8
(§9) The percentages of herbicidal damage/plant control, at 14 Days After herbicide Application (DAA) (or, in a minority of cases, at 15 DAA), for the Compounds tested and for some of the plants tested, were in the following percentage ranges. […] Phytotoxicity on Glycine max (GLXMA, Soybean) Cultivar “TMG133” Glycine max (GLXMA, soybean) cultivar “TMG133” is Roundup Ready™ glyphosate-tolerant soybean cultivar TMG133, and is typically available from Monsanto in Brazil.

The test system of another assay is Setaria faberi (SETFA). Particulars: 8 g/ha, 14 DAA (A11: 14 or 15 DAA), adjuvant 0.5% v/v Adigor + 1.0% v/v AMS + 12.5% v/v IPA. As to the method: as §1, §2, §3
Setaria faberi (SETFA)—growth stage 12 or 13
as §4, §5, §6, §8, §9

Assay [3] has as its system Zea mays (ZEAMX, maize, corn) cultivar Garland. Particulars: 8 g/ha, 14 DAA (A11: 14 or 15 DAA), adjuvant 0.5% v/v Adigor + 1.0% v/v AMS + 12.5% v/v IPA. As to the method: as §1, §2, §3
Zea mays (ZEAMX, maize/corn, e.g. can occur as volunteer corn) cultivar “Garland”—growth stage 12 or 13
as §4, §5, §6, §7

The subject of assay [4] is Glycine max (GLXMA, soybean) cultivar Nikko. The note with it: post-emergence, 14 DAA (A11: 14 or 15 DAA), adjuvant 0.5% v/v Adigor + 1.0% v/v AMS + 12.5% v/v IPA. As to the method:
as §1, §2, §3
Glycine max (GLXMA, soybean) cultivar “Nikko”—growth stage: 1st trifoliate
as §4, §5, §6
(§10) CAS Registry no. 166412-78-8), and is usually available from BASF. “Isononyl” in this context is thought to mean a mixture of two or more branched isomers of C9H19. Method: Seeds of the weed (including volunteer) plants, typically including inter alia Digitaria sanguinalis (DIGSA), Eleusine indica (ELEIN), Setaria faberi (SETFA), Zea mays (ZEAMX, corn), and sometimes also [either Brachiaria decumbens (BRADC) or Brachiaria platyphylla (BRAPP)], are sown in seed trays (troughs) containing clay loam soil (pH 7.0, 2.2% organic matter, “Trough Mix A”); and soybean seed is sown in pots containing the same soil with 3 soybean seedlings per pot. The plants are sprayed with the test herbicide when they reach the growth stages mentioned above. The test herbicidal solutions are prepared by mixing the appropriate aliquots of the test substance(s) and one of the adjuvant systems indicated above *** in deionised water to give the desired treatment concentration. The herbicidal application is made as a foliar spray, using a tracksprayer. Following the herbicidal application, the plants are watered twice per day for the duration of the test. A visual assessment of the % herbicidal damage is made 7 and 14 Days After herbicide Application (DAA) (or, in a minority of cases, 7 and 15 DAA), and the results are recorded as % visual herbicidal damage where 0%=no damage to plants and 100%=plant totally killed. *** Adjuvant system=either Adigor™ or Hexamoll DINCH™ or tris-(2-ethylhexyl) phosphate each at 0.5% v/v, and 12.5% v/v IPA (isopropyl alcohol), and 1.0% v/v AMS (ammonium sulphate); or 0.5% v/v Adigor™ and 12.5% v/v IPA (isopropyl alcohol); all percentages are final concentrations in the aqueous spray mixture.
(§11) Compounds A8, A11 and A17, which are compounds of formula (I) according to the present invention, were tested in a test method substantially as described above.
(§12) Compound A8 was tested using the 0.5% v/v Adigor™+12.5% v/v IPA adjuvant system. Compounds A11 and A17 were tested using the 0.5% v/v Adigor™+1.0% v/v AMS+12.5% v/v IPA adjuvant system.
The percentages of herbicidal damage/plant control, at 14 Days After herbicide Application (DAA) (or, in a minority of cases, at 15 DAA), for the Compounds tested and for some of the plants tested, were in the following percentage ranges. At least for Compounds A8 and A17, the phytotoxicity results shown herein are the average of 2 repetitions (for the grassy weeds, corn and soybean). […] Control of Zea mays (ZEAMX, Corn), a Warm-Climate (Warm-Season) Grassy Plant Zea mays (ZEAMX, maize, corn) is often present as a “volunteer” weed (“volunteer” corn) in fields where it was planted as a crop in preceding growing season(s) and where the present field crop is not corn. […]

The test system of assay [5] is Glycine max (GLXMA, soybean) cultivar TMG133. Particulars: 14 DAA (A11: 14 or 15 DAA), adjuvant 0.5% v/v Adigor + 1.0% v/v AMS + 12.5% v/v IPA. As to the method: as §1, §2, §3
Glycine max (GLXMA, soybean) cultivar “TMG133”—which is Roundup Ready™ glyphosate-tolerant soybean cultivar TMG133 (typically available from Monsanto in Brazil)—growth stage: 1st trifoliate.
as §4, §5, §6, §10, §11, §12
The percentages of herbicidal damage/plant control, at 14 Days After herbicide Application (DAA) (or, in a minority of cases, at 15 DAA), for the Compounds tested and for some of the plants tested, were in the following percentage ranges. […]

In the case of `CC#Cc1cc(F)c(C2C(=O)CCCC2=O)c(OC)c1` [Compound A17], in assay [1], the “percentage control of (phytotoxicity on) Brachiaria decumbens (BRADC)” value was 0%. Also, the “percentage control of Digitaria sanguinalis (DIGSA)” value in assay [2] amounted to 0%. Moreover, in the assay with Eleusine indica (ELEIN), the “percentage control of Eleusine indica (ELEIN)” value worked out at 0%. For the same compound, the “percentage control of Setaria faberi (SETFA)” value with Setaria faberi (SETFA) is listed as 0%. In addition, the “percentage control of Zea mays (ZEAMX, maize, corn)” value in assay [3] is given as 0%. The “percentage phytotoxicity on Glycine max (GLXMA, soybean) cultivar Nikko” value in assay [4] (120 g/ha) amounted to 5%; in assay [4] (240 g/ha), 7.5%. The “percentage phytotoxicity on Glycine max (GLXMA, soybean) cultivar TMG133” value in assay [5] (120 g/ha) amounted to 5%; in assay [5] (240 g/ha), 7.5%.
